From patent US4970215A, “Substituted 4-(quinolin-2-yl-methoxy)phenyl-acetic acid derivatives and anti-allergic use thereof” (Bayer Aktiengesellschaft, priority 1988, dated 1990)

Test system: lipoxygenase
Assay: Lipoxygenase inhibition: release of leucotriene B4 (LTB4) from polymorphonuclear rat leucocytes (PMN) after Ca-ionophor, reverse phase HPLC
Assay type: cell-based
Settings: RP-HPLC, read-out: LO inhibition IC50
Procedure: The release of leucotriene B4 (LTB4) from polymorphonuclear rat leucocytes (PMN) following addition of substances and a Ca-ionophor was determined by means of reverse phase HPLC by the method of Borgeat, P. et al., Proc. Nat. Acad. Sci. (USA) 76, 2148-2152 (1979) as a measure of lipoxygenase inhibition. The values achieved in this test with some compounds according to the invention are listed by way of example in Table 1: […]

Structure (SMILES) | IC50
O=C(O)C(CC1CCCCC1)c1ccc(OCc2ccc3ccccc3n2)cc1 (stereo not drawn) [Example 8, 2-[4-(Quinolin-2-yl-methoxy)phenyl]-3-cyclohexylpropionic acid] | 10 nM
O=C(O)C(c1ccc(OCc2ccc3ccccc3n2)cc1)C1CCCC1 (stereo not drawn) [Example 9, 2-[4-(Quinolin-2-yl-methoxy)phenyl]-2-cyclopentylacetic acid] | 40 nM
O=C(O)C(CC1CC1)c1ccc(OCc2ccc3ccccc3n2)cc1 (stereo not drawn) [Example 7, 2-[4-(Quinolin-2-yl-methoxy)phenyl]-3-cyclopropylpropionic acid] | 140 nM
